In patent EP2497775A1, “Ferrocene-based compounds and their use as ROS regulating prodrugs” (Ruprecht-Karls-Universität Heidelberg, priority 2011, dated 2012):
Like-named read-outs stand apart in the source and are kept apart here.

Legend:
[1] = Release of iron ions from the prodrugs in the presence of hydrogen peroxide (2,2'-bipyridine absorbance); format: physicochemical; details: H2O2 (1 mM), 22°C, 100 min, MOPS buffer pH 7.5; relative to FeSO4 (100 µM)
Experimental: Monitoring release of iron ions from the prodrugs A-E, Comparative Example and control compounds in the presence of hydrogen peroxide (Table 1):
Solution of a ferrocene complex (10 µL, 10 mM in DMF containing 2% water and 1% sodium ascorbate) was diluted with MOPS buffer (990 µL, 100 mM, pH 7.5). Such probes were incubated with H2O2 (1 mM) at 22°C for 100 min. Then the reaction was quenched by adding sodium dithionite (20 µL, 1 M in water) that converts Fe^3+ into Fe^2+. Finally, 2,2'-bipyridine solution (3 µL, 100 mM in DMF) was added to form dark red [Fe(2,2'-bipyridine)3]^2+ complex (λmax= 519 nm). FeSO4 sulfate (100 µM) was used as a positive control to determine the absorbance intensity when the ferrocene complexes were completely converted by H2O2 to free Fe^2+. […] The data are provided in Table 2 and were determined by using the following formulae: iron release efficacy = (A519nm(prodrug) - A519nm(buffer)) / (A519nm(FeSO4) - A519nm(buffer)), where A519nm(prodrug) is absorbance at 519 nm of a prodrug treated with H2O2 and 2,2'-bipyridine as described above, A519nm(FeSO4) is absorbance at 519 nm of FeSO4 treated in a similar way as a prodrug and A519nm(buffer) is absorbance at 519 nm of the buffer only treated in a similar way as a prodrug.

[2] = Generation of ROS in vitro (DCFH fluorescence, cell-free); format: biochemical; details: iron complex 100 µM, H2O2 (10 mM), glutathione (5 mM), pH 7.5, relative to FeSO4
Experimental: Monitoring generation of ROS in the presence of the prodrugs A-E, Comparative Example and control compounds (Table 1):
2',7'-Dichlorfluorescin diacetate (DCFH-DA, 4.9 mg) was dissolved in DMF (100 µL) and mixed with aqueous NaOH (0.1 M, 900 µL). The resulting mixture was incubated for 30 min at 22°C in the dark to obtain the stock solution of 2',7'-dichlorfluorescin (DCFH, 10 mM). Next, the solution (1 mL) containing DCFH (10 µM), MOPS buffer (100 mM, pH 7.5), EDTA (10 mM), glutathione (5 mM) and H2O2 (10 mM) was prepared. Monitoring of fluorescence (λex= 501 nm, λem= 531 nm) of this solution was started. After 3 min, an iron complex (100 µM: ferrocene prodrugs A-E, Comparative Example, negative or positive controls 1 a, P) was added and the fluorescence monitoring was continued. Efficacy of ROS generation was then determined 17 and 37 min after the addition of the iron complex by using the following formulae: efficacy = (F(prodrug) - F0) / (F(FeSO4) - F0), where F(prodrug) is fluorescence of a mixture containing prodrug and treated as described above, F(FeSO4) is fluorescence of a mixture containing FeSO4; F0 is fluorescence of a mixture containing no iron complex.

HL60-cells = test: Cell permeability of the prodrugs (boron/curcumin assay); format: cell-based, Human; details: 100 µM, 1 h, boron relative to comparative example C.-E.
Experimental: Assay for determination of cell Permeability of the prodrugs (Table 2) (according to the protocol described in J.Plant Nutr. Soil Sci. 1999,162,15-18) HL60-cells grown in RPMI 1640 medium supplemented with 10 % FCS, 1 % glutamine and 1% penicillin / streptomycin were centrifuged and the medium was replaced with RPMI 1640 medium (5 % FCS, 1 % L-glutamine, 1% penicillin) to obtain suspensions containing 10^6 cells per mL. Solutions of prodrugs (5 µL, solvent: DMF containing 2 % water and 1 % sodium ascorbate) were added to the suspensions (500 µL) and incubated for 1 h. The final concentration of the prodrugs in the suspensions was 100 µM. Then the cells were washed 3 times with PBS buffer (3 x 500 µL), treated with concentrated H2O2 solution (200 µL, 1 M) for 30 min and all volatiles were removed by lyophilization. Dry, lysed cells were washed with water (200 µL) and aqueous solution obtained was acidified with HCl (400 µL, 0.1 M). Then this solution was extracted with ethyl-1,3-hexandiol (100 µL, 10 % in CHCl3, v/v) and a portion of the organic phase obtained (40 µL) was mixed with H2SO4 / CH3CO2H (400 µL, 1/1, v/v). Curcumin solution in methylisobutylketone (500 µL, 2 mg in 1 mL of the solvent) was added and allowed to react for 24 h. The reaction was quenched by addition of water (1 mL). […] The value A(550 nm)-A(780 nm) was proportional to concentration of boron in the mixture. Amount of boron released from comparative example C.-E. was taken as a reference. All other values were determined relative to this reference. These values are compared in Table 2 with TLC retention factors, which are proportional to hydrophobicity of the prodrugs.

[3] = TLC retention factor as measure of hydrophobicity; format: physicochemical; details: support - SiO2, eluent - hexane / ethyl acetate (3/1, v/v); proportional to hydrophobicity
HL-60 cells = test: Generation of ROS in cells (DCFH-DA, flow cytometry); format: cell-based, Human; details: 50 µM, 4 h
Experimental: Generation of ROS in HL-60 cells in the presence the prodrugs, comparative example C.-E. and controls (Table 3)
The probe of HL-60 cells was taken from the cultivation medium (RPMI 1640 supplemented with 10 % FCS, 1 % L-glutamine and 1% penicillin). The medium was replaced for PBS-buffer to obtain the cell suspension with 10^6 cells per mL. DCFH-DA solution (1 µL, 10 mM in DMSO) was added to the suspension (1 mL) and incubated in the dark chamber filled with CO2 (5 %) at 37 °C for 5 min. Then, the cells were washed with PBS and RPMI 1640 (5 % FCS, 1 % L-glutamine, 1% penicillin) medium and an iron complex (10 µL of stock solutions, solvent: DMF containing 2 % water and 1 % sodium ascorbate, final concentration of the complex - 50 µM) was added. After 4 h of the incubation the fluorescence of live cells (λex = 488 nm, λem = 530 nm) in the suspensions was determined by using the flow cytometer. Efficacy of ROS generation was determined using the following formulae: efficacy = (F(prodrug) - F0) / (F(FeSO4) - F0), where F(prodrug) is mean fluorescence intensity of cells incubated with a prodrug and treated as described above, F(FeSO4) is mean fluorescence intensity of cells incubated with FeSO4; F0 is mean fluorescence intensity of cells, which were not treated with any iron complex.

[4] = system: Human promyelocytic leukemia cells (HL-60); test: Viability of HL-60 cells (propidium iodide, flow cytometry); format: cell-based; details: read-out: Toxicity of the complexes: IC50
Experimental: Determination of viability of HL-60 cells (Table 4)
HL-60 cells grown in RPMI 1640 medium supplemented with 10 % FCS, 1 % L-glutamine and 1% penicillin were centrifuged, the medium was replaced with RPMI 1640 medium (5 % FCS, 1 % L-glutamine, 1% penicillin) to obtain suspensions containing 10^6 cells per mL. Stock solutions of prodrugs of different concentrations (5 µL, solvent: DMF containing 2 % water and 1 % sodium ascorbate) were added to the cellular suspensions (500 µL) and incubated for specific periods of time. Four experiments were conducted for each concentration of the prodrug. At the end of the incubation period propidium iodide (PI, 1 µL, 1.5 mM in water) was added to label leaky cells and in 5 min the suspension of the cells was analyzed by using flow cytometry.

[5] = Formation of ferrocenium ions in the presence of H2O2 (absorbance at 300 nm); format: physicochemical; details: 100 µM complex in dimethylformamide, 9.8 mM H2O2 (Figure 1)
Experimental: Figure 1: Iron complexes (100 µM) were dissolved in dimethylformamide and concentrated H2O2 solution (30 % in water, 1 µL) was added: final H2O2 concentration was 9.8 mM. Light absorbance at 300 nm was monitored as a function of time.
Monitoring formation of ferrocenium ions from the prodrugs A and B, as well as comparative example C.-E
Formation of ferrocenium ions from ferrocenes correlates with the increased light absorption in the region between 250 and 350 nm. In this spectral region […] have intense charge transfer transitions, whereas ferrocenes have only weak transitions (Y.S. Sohn, D.N. Hendrickson, H.B. Grey, J. Am. Chem. Soc., 1971, 93(15), 3603 - 3612).

Fibroplasts = test: Viability of fibroplasts (MTT); format: cell-based; details: Fibroplasts (normal cells); read-out: Toxicity of the complexes: IC50
Experimental: Determination of viability of fibroplasts (Table 4)
Cells were grown either in DMEM medium (Dulbecco's Modified Eagle's Medium) supplemented with 10 % FCS, 1 % L-glutamine and 1% streptomycin/ penicillin up to 80-90 % confluence. Then the cells were trypsinated, washed, re-suspended in the same medium and spread in wells of a 96-wells microtiter plate (-25.000 cells per well, per 100 µL) and left standing at 37 °C in the chamber filled with CO2 (5 %) for 5 h. Stock solutions of prodrugs of different concentrations (1 µL, solvent: DMF / water (1/3, v/v) containing 1 % sodium ascorbate) were added to the wells and incubated for specific periods of time. Four experiments were conducted for each concentration of the prodrug.

MIRW5 (melanoma) = details: cited from earlier work
A375 (melanoma) = details: cited from earlier work
C8161 (melanoma) = details: cited from earlier work
HEY (ovary) = details: cited from earlier work
BE (ovary) = details: cited from earlier work
C480 (colon) = details: cited from earlier work
MCF-7 (breast) = details: cited from earlier work
8226 (myeloma) = details: cited from earlier work
8226-Dox 40 (myeloma) = details: cited from earlier work
CIN8/27B (myeloma) = details: cited from earlier work
[6] = system: MES-SA human uterine cancer; details: ref. [6]; cited from earlier work
[7] = 72 h incubation (value in brackets)

Molecule | Efficacy of iron release in vitro [1] | Relative efficiency of cell loading (HL60-cells) | TLC-retention factor (Rf) [3] | Efficacy of ROS generation in vitro ([2]; 17 min incubation) | Efficacy of ROS generation in vitro ([2]; 37 min incubation) | Efficacy of ROS release in cells (HL-60 cells) | IC50 [4] | other results
4-((N-Ethyl-N-Ferrocenylaminocarbonyl)oxymethyl)-2-phenylboronic acid pinacol ester [Prodrug A] | 0.72 |  | 0.47 | 0.50 |  | 0.06 ± 0.03 | 26 ± 3 µM | IC50 ([4]; listed as prodrug A): 12 to 26 µM
4-((N-Ferrocenylaminocarbonyl)oxymethyl)-2-methylphenylboronic acid pinacol ester [Prodrug E] | 0.74 |  | 0.45 | 0.52 |  | 0.04 ± 0.02 | 39 ± 4 µM | formation of ferrocenium ions [5]: rather decomposed with formation of iron ions
4-((N-benzyl-N-Ferrocenylaminocarbonyl)oxymethyl)-2-phenylboronic acid pinacol ester [Prodrug B] | 0.09 | 1.8 | 0.46 | 0.24 | 0.53 | 0.09 ± 0.02 | 12 ± 2 µM | IC50 ([4]; listed as prodrug B): 12 to 26 µM; IC50 (Fibroplasts): > 50 µM
N=C1NC(=O)N2CC12 (stereo not drawn) [Imexon (Amplimexon), Imexon] |  |  |  |  |  |  |  | IC50 (MIRW5 (melanoma); 24 h incubation): 315 µM; IC50 (MIRW5 (melanoma); [7]): 63 µM; IC50 (A375 (melanoma); 24 h incubation): 54 µM; IC50 (A375 (melanoma); [7]): 45 µM; IC50 (C8161 (melanoma); 24 h incubation): 72 µM; IC50 (C8161 (melanoma); [7]): 135 µM; IC50 (HEY (ovary); 24 h incubation): 180 µM; IC50 (HEY (ovary); [7]): 270 µM; IC50 (BE (ovary); 24 h incubation): 450 µM; IC50 (BE (ovary); [7]): 270 µM; IC50 (C480 (colon); 24 h incubation): 270 µM; IC50 (C480 (colon); [7]): 135 µM; IC50 (MCF-7 (breast); 24 h incubation): 270 µM; IC50 (MCF-7 (breast); [7]): 450 µM; IC50 (8226 (myeloma); 24 h incubation): 40 µM; IC50 (8226 (myeloma); [7]): 41 µM; IC50 (8226-Dox 40 (myeloma); 24 h incubation): 40 µM; IC50 (8226-Dox 40 (myeloma); [7]): 36 µM; IC50 (CIN8/27B (myeloma); 24 h incubation): 270 µM; IC50 (CIN8/27B (myeloma); [7]): 90 µM
CC(=O)[O-].CC(=O)[O-].CCc1c(CC)c2cc3nc(cnc4cc(OCCOCCOCCOC)c(OCCOCCOCCOC)cc4ncc4nc(cc1[n-]2)C(CCCO)=C4C)C(C)=C3CCCO.[Gd+3] [Motexafin gadolinium] |  |  |  |  |  |  |  | IC50 [6]: ~12 µM

Now from value to molecule, other results behind:

Efficacy of iron release in vitro [1] | Relative efficiency of cell loading (HL60-cells) | TLC-retention factor (Rf) [3] | Molecule | Efficacy of ROS generation in vitro ([2]; 17 min incubation) | Efficacy of ROS generation in vitro ([2]; 37 min incubation) | Efficacy of ROS release in cells (HL-60 cells) | IC50 [4] | other results
0 | 2.3 | 0.51 | 4-((N-(4-ethylbenzyl)-N-Ferrocenylaminocarbonyl)oxymethyl)-2-phenylboronic acid pinacol ester [Prodrug D] | 0.09 | 0.24 | 0.03 ± 0.02 | 14 µM | IC50 ([4]; listed as prodrug D): 12 to 26 µM
0 | 1.5 | 0.50 | 4-((N-(4-methylbenzyl)-N-Ferrocenylaminocarbonyl)oxymethyl)-2-phenylboronic acid pinacol ester [Prodrug C] | 0.10 | 0.42 |  | 12 ± 1 µM | IC50 ([4]; listed as prodrug C): 12 to 26 µM
